From ChEMBL document CHEMBL1132713, “Emerging molecular approaches to pain therapy” (J Med Chem, 1999)
pKi: −log10 of the molar value.

Legend:
[1] = molecular target: Delta-type opioid receptor (Homo sapiens, UniProt P41143); experiment: Opioid receptor delta 1 agonist activity was determined; type: functional
Proteasome = experiment: Inhibitory activity against 26S proteasome degradation of IkB; type: subcellular

Sequence of Delta-type opioid receptor (P41143 whole entry): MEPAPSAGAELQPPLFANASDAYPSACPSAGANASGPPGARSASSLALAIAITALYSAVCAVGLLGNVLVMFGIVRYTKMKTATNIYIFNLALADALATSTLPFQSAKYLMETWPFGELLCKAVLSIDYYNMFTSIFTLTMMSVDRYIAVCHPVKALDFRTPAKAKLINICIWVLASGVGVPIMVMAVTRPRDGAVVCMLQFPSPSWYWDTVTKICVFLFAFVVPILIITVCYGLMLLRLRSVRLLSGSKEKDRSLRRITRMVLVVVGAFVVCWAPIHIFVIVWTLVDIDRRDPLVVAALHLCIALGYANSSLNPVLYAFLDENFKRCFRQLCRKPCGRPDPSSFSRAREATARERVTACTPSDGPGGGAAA

Compound	pKi [1]	pKi (Proteasome)
COc1ccc2c3c1OC1C4NC(C(=O)OCC(C)C)=C(C)C4CC4C(C2)N(C)CCC341 (configuration not stated)	8.32	–
CC(C)C[C@H](NC(=O)[C@@H](Cc1ccccc1)NC(=O)c1ccccc1)B(O)O	–	9.22
